Reference: patent publication US10538532B2, “Hepatitis B antiviral agents” (ENANTA PHARMACEUTICALS, INC., priority 2016, dated 2020)
Like-named read-outs stand apart in the source and are kept apart here.

System: HBV
Test: HepAD38 antiviral assay: reduction of viral product accumulation (virion DNA by qPCR, HBsAg or HBeAg by ELISA)
Assay type: cell-based, hepatitis B virus
Details: HepAD38 cells, five days after compound addition, concentration reducing viral product accumulation by 50% relative to no drug controls, read-out: HepAD38 EC50
Procedure: Methods: HepAD38 cells are maintained as previously reported (Ladner et al, Antimicrob. Agents Chemother. 1997, […], 1715). Briefly, cells are passaged upon attaining confluency in DMEM/F12 media in the presence of 10% FBS, Penn/Strep, 250 μg/mL G418, and 1 ug/ml tetracycline. Novel compounds are screened by first washing cells three times with PBS to remove tetracycline, and plating in 96 well plates at 35,000 cells/well. Compounds dissolved in DMSO are then diluted 1:200 into wells containing cells. Five days after compound addition, material is harvested for analysis. For an extended 8 day analysis, cells are plated and treated as described above, but media and compound are refreshed on d2 and d5 post initial treatment.
On harvest day, virion DNA is obtained by lysing with Sidestep Lysis and Stabilization Buffer and then quantified via quantitative real time PCR. Commercially available ELISA kits are used to quantitate the viral proteins HBsAg (Alpco) or HbeAg (US Biological) by following the manufacturer's recommended protocol after diluting samples to match the linear range of their respective assays. Irrespective of readout, compound concentrations that reduce viral product accumulation in the cell lysates or supernatants by 50% relative to no drug controls (EC50) are reported; EC50 ranges are as follows: A<0.1 μM; B 0.1-0.4 μM; C>0.4 μM.

[1] = Hepatitis B virus, HePAD38, 120 h

Compound | EC50 [1] [µM] | EC50 [µM]
O=C(Nc1cc(F)c(F)c(F)c1)c1ccc(Cl)c(S(=O)(=O)C2CC[C@@H](O)[C@@H](O)CC2)c1 (some centres unmarked) [Example 83] | 0.1 to 0.4 | 
O=C(Nc1cc(F)c(F)c(F)c1)c1ccc(Cl)c(S(=O)(=O)C2C[C@@H](O)[C@@H](O)C2)c1 (some centres unmarked) [Example 85] | 0.1 to 0.4 | 
O=C(Nc1cc(F)c(F)c(F)c1)c1ccc(Cl)c(S(=O)(=O)C2CC3O[C@H]3C2)c1 (some centres unmarked) [Example 86] |  | > 0.4
O=C(Nc1cc(F)c(F)c(F)c1)c1ccc(Cl)c(S(=O)(=O)C2CC3O[C@H]3C2)c1 (some centres unmarked) [Example 87] |  | 0.1 to 0.4
O=C(Nc1cc(F)c(F)c(F)c1)c1ccc(Cl)c(S(=O)(=O)C2(CCCO)CCCCC2)c1 [Example 88] | > 0.4 | 
O=C(Nc1cc(F)c(F)c(F)c1)c1ccc(Cl)c(S(=O)(=O)C2(CCO)CCCCC2)c1 [Example 89] | 0.1 to 0.4 | 
CC1(C)O[C@@H]2[C@@H](CSc3cc(C(=O)Nc4cc(F)c(F)c(F)c4)ccc3Cl)OC(=O)[C@]2(C)O1 [Example 90] | > 0.4 | 
CCOC(=O)C(F)(F)Sc1cc(C(=O)Nc2cc(F)c(F)c(F)c2)ccc1Cl [Example 91] | > 0.4 | 
CCOC(=O)C(C)(C)S(=O)(=O)c1cc(C(=O)Nc2cc(F)c(F)c(F)c2)ccc1Cl [Example 92] | > 0.4 | 
CCOC(=O)C(F)(F)S(=O)(=O)c1cc(C(=O)Nc2cc(F)c(F)c(F)c2)ccc1Cl [Example 93] | > 0.4 | 
CCOC(=O)C(C)S(=O)(=O)c1cc(C(=O)Nc2cc(F)c(F)c(F)c2)ccc1Cl (centres unmarked) [Example 94] | > 0.4 | 
O=C(Nc1cc(F)c(F)c(F)c1)c1ccc(Cl)c(S(=O)(=O)C2CCN(c3ccccn3)CC2)c1 [Example 95] | > 0.4 | 
CN1CCC(S(=O)(=O)c2cc(C(=O)Nc3cc(F)c(F)c(F)c3)ccc2Cl)CC1 [Example 96] | > 0.4 | 
C[C@]1(O)C(=O)O[C@H](CSc2cc(C(=O)Nc3cc(F)c(F)c(F)c3)ccc2Cl)[C@H]1O [Example 97] | > 0.4 | 
CC1(C)O[C@@H]2[C@@H](CS(=O)(=O)c3cc(C(=O)Nc4cc(F)c(F)c(F)c4)ccc3Cl)OC(=O)[C@]2(C)O1 [Example 98] | > 0.4 | 
C[C@]1(O)C(=O)O[C@H](CS(=O)(=O)c2cc(C(=O)Nc3cc(F)c(F)c(F)c3)ccc2Cl)[C@H]1O [Example 99] | > 0.4 | 
CC1(C)O[C@@H]2[C@@H](CS(=O)(=O)c3cc(C(=O)Nc4cc(F)c(F)c(F)c4)ccc3Cl)OC(=O)[C@@H]2O1 [Example 100] | > 0.4 | 
O=C(Nc1cc(F)c(F)c(F)c1)c1ccc(Cl)c(S(=O)(=O)C[C@H]2OC(=O)[C@H](O)[C@@H]2O)c1 [Example 101] | > 0.4 | 
O=C(Nc1cc(F)c(F)c(F)c1)c1ccc(Cl)c(S(=O)(=O)C[C@@H]2C[C@@H](O)[C@@H](O)C2)c1 [Example 102] | 0.1 to 0.4 | 
CCOC(=O)C(Cc1ccncc1)S(=O)(=O)c1cc(C(=O)Nc2cc(F)c(F)c(F)c2)ccc1Cl (centres unmarked) [Example 103] | > 0.4 | 
C=C1CCC(S(=O)(=O)c2cc(C(=O)Nc3cc(F)c(F)c(F)c3)ccc2Cl)CC1 [Example 104] | 0.1 to 0.4 | 
O=C(Nc1cc(F)c(F)c(F)c1)c1ccc(Cl)c(S(=O)(=O)C[C@H]2C[C@@H](O)C2)c1 [Example 105] | 0.1 to 0.4 | 
O=C(Nc1cc(F)c(F)c(F)c1)c1ccc(Cl)c(S(=O)(=O)[C@H]2C3CCC2C[C@H](CO)C3)c1 [Example 106] | < 0.1 | 
CC1(C)O[C@H]2[C@H](CO[C@@H]2CS(=O)(=O)c2cc(C(=O)Nc3cc(F)c(F)c(F)c3)ccc2Cl)O1 [Example 107] | > 0.4 | 
O=C(Nc1cc(F)c(F)c(F)c1)c1ccc(Cl)c(S(=O)(=O)C[C@H]2OC[C@H](O)[C@@H]2O)c1 [Example 108] | > 0.4 | 

Compound | EC50 [1] [µM] | EC50 [µM]
O=C(Nc1cc(F)c(F)c(F)c1)c1ccc(Cl)c(S(=O)(=O)[C@H]2CC[C@](O)(CO)CC2)c1 [Example 109] | 0.1 to 0.4 | 
O=C(Nc1cc(F)c(F)c(F)c1)c1ccc(Cl)c(S(=O)(=O)[C@H]2CC[C@@](O)(CO)CC2)c1 [Example 110] | 0.1 to 0.4 | 
O=C(Nc1cc(F)c(F)c(F)c1)c1ccc(Cl)c(S(=O)(=O)C[C@H]2CC[C@H](O)CC2)c1 [Example 111] | < 0.1 | 
O=C(Nc1cc(F)c(F)c(F)c1)c1ccc(Cl)c(S(=O)(=O)C[C@H]2CC[C@@H](O)CC2)c1 [Example 112] | < 0.1 | 
O=C(Nc1cc(F)c(F)c(F)c1)c1ccc(Cl)c(S(=O)(=O)CC2CCOCC2)c1 [Example 113] | 0.1 to 0.4 | 
O=C(Nc1cc(F)c(F)c(F)c1)c1ccc(Cl)c(S(=O)(=O)[C@H]2CC[C@@H](CO)CC2)c1 [Example 114] | 0.1 to 0.4 | 
O=C(Nc1cc(F)c(F)c(F)c1)c1ccc(Cl)c(S(=O)(=O)[C@H]2CC[C@H](CO)CC2)c1 [Example 115] | 0.1 to 0.4 | 
CCOC(=O)C(CC1CCOCC1)S(=O)(=O)c1cc(C(=O)Nc2cc(F)c(F)c(F)c2)ccc1Cl (centres unmarked) [Example 116] | > 0.4 | 
CC([C@H]1C[C@@H](O)C1)S(=O)(=O)c1cc(C(=O)Nc2cc(F)c(F)c(F)c2)ccc1Cl (some centres unmarked) [Example 117] | 0.1 to 0.4 | 
CC(C)([C@H]1C[C@@H](O)C1)S(=O)(=O)c1cc(C(=O)Nc2cc(F)c(F)c(F)c2)ccc1Cl [Example 118] | 0.1 to 0.4 | 
CC(C)(C)OC(=O)N1C2CCC1CC(S(=O)(=O)c1cc(C(=O)Nc3cc(F)c(F)c(F)c3)ccc1Cl)C2 (centres unmarked) [Example 119] |  | > 0.4
O=C(Nc1cc(F)c(F)c(F)c1)c1ccc(Cl)c(S(=O)(=O)[C@H]2C3CC[C@H]2CC(O)C(O)C3)c1 (some centres unmarked) [Example 120] | < 0.1 | 
CC(C)(c1ccncc1)S(=O)(=O)c1cc(C(=O)Nc2cc(F)c(F)c(F)c2)ccc1Cl [Example 121] | > 0.4 | 
O=C(Nc1cc(F)c(F)c(F)c1)c1ccc(Cl)c(S(=O)(=O)CCC2CCOCC2)c1 [Example 123] | 0.1 to 0.4 | 
CC(C)(CO)S(=O)(=O)c1cc(C(=O)Nc2cc(F)c(F)c(F)c2)ccc1Cl [Example 124] | 0.1 to 0.4 | 
O=C(Nc1cc(F)c(F)c(F)c1)c1ccc(Cl)c(S(=O)(=O)C2CCCC(O)CC2)c1 (centres unmarked) [Example 125] | 0.1 to 0.4 | 
CC1(C)OC[C@@]2(CC3CC[C@@H](C2)[C@H]3S(=O)(=O)c2cc(C(=O)Nc3ccc(F)c(F)c3)ccc2Cl)O1 [Example 126] | 0.1 to 0.4 | 
O=C(Nc1ccc(F)c(F)c1)c1ccc(Cl)c(S(=O)(=O)[C@H]2C3CC[C@H]2C[C@](O)(CO)C3)c1 [Example 127] | < 0.1 | 
CC1(C)OC[C@@]2(CC3CC[C@@H](C2)[C@H]3S(=O)(=O)c2cc(C(=O)Nc3cc(F)c(F)c(F)c3)ccc2Cl)O1 [Example 128] | 0.1 to 0.4 | 
O=C[C@]1(O)CC2CC[C@@H](C1)[C@H]2S(=O)(=O)c1cc(C(=O)Nc2cc(F)c(F)c(F)c2)ccc1Cl [Example 129] | < 0.1 | 
O=C1CC2CC[C@@H](C1)[C@H]2S(=O)(=O)c1cc(C(=O)Nc2cc(F)c(F)c(F)c2)ccc1Cl [Example 130] | < 0.1 | 
O=C(Nc1cc(F)c(F)c(F)c1)c1ccc(Cl)c(S(=O)(=O)[C@H]2C3CC[C@H]2C[C@](O)(C(=O)O)C3)c1 [Example 131] | > 0.4 | 
CC(=O)OC[C@]1(O)CC2CC[C@@H](C1)[C@H]2S(=O)(=O)c1cc(C(=O)Nc2cc(F)c(F)c(F)c2)ccc1Cl [Example 132] | < 0.1 | 
O=C(Nc1cc(F)c(F)c(F)c1)c1ccc(Cl)c(S(=O)(=O)C2C3CCCC2CC(O)(CO)C3)c1 (centres unmarked) [Example 133] | 0.1 to 0.4 | 
O=C(Nc1cc(F)c(F)c(F)c1)c1ccc(Cl)c(S[C@H]2C3CC[C@H]2C[C@](O)(CO)C3)c1 [Example 134] | 0.1 to 0.4 | 
